Measured values: ChEMBL document CHEMBL5244258, “PROTACs: New method to degrade transcription regulating proteins” (Eur J Med Chem, 2020)
One block for each compound: values may come before it.

Columns and labels:
[1] = biological target: T1, von Hippel-Lindau disease tumor suppressor/Bromodomain-containing protein 4 (Homo sapiens, UniProt O60885+P40337); experiment: Protac activity at BRD4/VHL (unknown origin)
[2] = biological target: T1, von Hippel-Lindau disease tumor suppressor/Bromodomain-containing protein 4; experiment: Protac activity at BRD4/VHL (unknown origin) assessed as maximum efficacy relative to control
[3] = biological target: T2, Androgen receptor (Homo sapiens) (UniProt P10275); experiment: Induction of AR degradation in human HeLa cells assessed as maximum efficacy at 3 nM relative to control; assay type: cell-based
T2 sequence (whole entry): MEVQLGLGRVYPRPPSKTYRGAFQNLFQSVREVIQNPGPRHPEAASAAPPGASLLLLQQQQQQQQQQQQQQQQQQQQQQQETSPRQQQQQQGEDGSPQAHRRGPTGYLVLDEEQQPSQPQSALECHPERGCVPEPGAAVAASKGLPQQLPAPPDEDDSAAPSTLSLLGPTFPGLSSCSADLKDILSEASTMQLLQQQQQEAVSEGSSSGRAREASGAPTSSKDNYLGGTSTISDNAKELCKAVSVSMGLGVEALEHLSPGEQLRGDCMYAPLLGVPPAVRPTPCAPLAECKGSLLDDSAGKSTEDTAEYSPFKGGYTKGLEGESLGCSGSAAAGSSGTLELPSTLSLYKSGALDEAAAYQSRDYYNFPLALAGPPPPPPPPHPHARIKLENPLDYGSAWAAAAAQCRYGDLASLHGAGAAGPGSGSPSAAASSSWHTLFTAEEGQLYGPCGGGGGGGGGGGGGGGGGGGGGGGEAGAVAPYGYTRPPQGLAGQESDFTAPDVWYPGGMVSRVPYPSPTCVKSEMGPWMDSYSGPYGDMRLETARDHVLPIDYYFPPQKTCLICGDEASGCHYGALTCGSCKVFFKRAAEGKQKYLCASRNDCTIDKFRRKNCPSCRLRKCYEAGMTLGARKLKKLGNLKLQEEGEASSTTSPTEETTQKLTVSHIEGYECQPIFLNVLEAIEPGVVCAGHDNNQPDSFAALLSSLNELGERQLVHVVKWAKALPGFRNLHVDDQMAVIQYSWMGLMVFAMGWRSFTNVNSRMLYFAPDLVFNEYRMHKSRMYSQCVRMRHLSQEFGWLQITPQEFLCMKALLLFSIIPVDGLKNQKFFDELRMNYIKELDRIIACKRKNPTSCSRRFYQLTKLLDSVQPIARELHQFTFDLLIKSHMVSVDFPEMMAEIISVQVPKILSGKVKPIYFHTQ

[4] = biological target: T2, Androgen receptor (Homo sapiens); experiment: Induction of AR degradation in human HeLa cells assessed as maximum efficacy at 100 nM relative to control; assay type: cell-based
[5] = biological target: T3, Estrogen receptor (Homo sapiens, UniProt P03372); experiment: Induction of estrogen receptor degradation in human MCF7; assay type: cell-based
T3 sequence (P03372 whole entry): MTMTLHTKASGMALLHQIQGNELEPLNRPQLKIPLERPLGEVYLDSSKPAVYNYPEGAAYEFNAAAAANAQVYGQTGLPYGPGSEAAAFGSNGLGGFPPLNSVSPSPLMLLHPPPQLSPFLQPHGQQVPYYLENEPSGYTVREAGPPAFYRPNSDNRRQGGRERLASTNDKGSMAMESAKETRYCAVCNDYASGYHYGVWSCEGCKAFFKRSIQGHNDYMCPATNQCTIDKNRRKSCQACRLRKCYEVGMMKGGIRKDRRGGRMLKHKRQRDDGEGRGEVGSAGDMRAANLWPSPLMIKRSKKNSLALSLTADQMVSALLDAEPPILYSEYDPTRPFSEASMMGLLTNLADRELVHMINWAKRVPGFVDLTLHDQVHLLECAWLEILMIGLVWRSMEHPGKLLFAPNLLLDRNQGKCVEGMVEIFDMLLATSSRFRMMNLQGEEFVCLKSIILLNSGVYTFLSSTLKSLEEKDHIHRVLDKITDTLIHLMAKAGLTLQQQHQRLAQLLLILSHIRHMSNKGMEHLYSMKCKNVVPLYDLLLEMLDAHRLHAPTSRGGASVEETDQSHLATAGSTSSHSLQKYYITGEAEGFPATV

[6] = biological target: T4, Estrogen receptor (Homo sapiens) (UniProt P03372); experiment: Induction of estrogen receptor degradation in human MCF7 cells assessed as maximum efficacy relative to control; assay type: cell-based
T4 sequence (whole entry): T3 sequence (P03372 whole entry)

[7] = biological target: T5, Bromodomain-containing protein 2 (Homo sapiens, UniProt P25440); experiment: Induction of BRD2 degradation (unknown origin)
[8] = biological target: T5, Bromodomain-containing protein 2; experiment: Induction of BRD2 degradation (unknown origin) relative to control
[9] = biological target: T1, von Hippel-Lindau disease tumor suppressor/Bromodomain-containing protein 4; experiment: Protac activity at VHL/BRD4 in human HeLa cells assessed as BRD4 degradation at 1 uM by Western blot analysis relative to control; assay type: cell-based
[10] = biological target: Bromodomain-containing protein 4 (Homo sapiens) (UniProt O60885); experiment: Induction of BRD4 degradation in human HeLa cells assessed as maximum efficacy at 1 uM relative to control; assay type: cell-based
[11] = biological target: T1, von Hippel-Lindau disease tumor suppressor/Bromodomain-containing protein 4; experiment: Protac activity at VHL/BRD4 in human HeLa cells assessed as BRD4 degradation by Western blot analysis relative to control; assay type: cell-based
[12] = system: MV4-11; experiment: Antiproliferative activity against human MV4-11 cells assessed as growth inhibition; assay type: functional, cell-based
[13] = biological target: T6, von Hippel-Lindau disease tumor suppressor/SWI/SNF-related matrix-associated actin-dependent regulator of chromatin subfamily A member 2 (Homo sapiens, UniProt P51531+P40337); experiment: PROTAC activity at SMARCA2/VHL in human MV4-11 cells assessed as degradation of SMARCA2 by Western blot analysis; assay type: cell-based
Target sequence in this assay (P51531 whole entry): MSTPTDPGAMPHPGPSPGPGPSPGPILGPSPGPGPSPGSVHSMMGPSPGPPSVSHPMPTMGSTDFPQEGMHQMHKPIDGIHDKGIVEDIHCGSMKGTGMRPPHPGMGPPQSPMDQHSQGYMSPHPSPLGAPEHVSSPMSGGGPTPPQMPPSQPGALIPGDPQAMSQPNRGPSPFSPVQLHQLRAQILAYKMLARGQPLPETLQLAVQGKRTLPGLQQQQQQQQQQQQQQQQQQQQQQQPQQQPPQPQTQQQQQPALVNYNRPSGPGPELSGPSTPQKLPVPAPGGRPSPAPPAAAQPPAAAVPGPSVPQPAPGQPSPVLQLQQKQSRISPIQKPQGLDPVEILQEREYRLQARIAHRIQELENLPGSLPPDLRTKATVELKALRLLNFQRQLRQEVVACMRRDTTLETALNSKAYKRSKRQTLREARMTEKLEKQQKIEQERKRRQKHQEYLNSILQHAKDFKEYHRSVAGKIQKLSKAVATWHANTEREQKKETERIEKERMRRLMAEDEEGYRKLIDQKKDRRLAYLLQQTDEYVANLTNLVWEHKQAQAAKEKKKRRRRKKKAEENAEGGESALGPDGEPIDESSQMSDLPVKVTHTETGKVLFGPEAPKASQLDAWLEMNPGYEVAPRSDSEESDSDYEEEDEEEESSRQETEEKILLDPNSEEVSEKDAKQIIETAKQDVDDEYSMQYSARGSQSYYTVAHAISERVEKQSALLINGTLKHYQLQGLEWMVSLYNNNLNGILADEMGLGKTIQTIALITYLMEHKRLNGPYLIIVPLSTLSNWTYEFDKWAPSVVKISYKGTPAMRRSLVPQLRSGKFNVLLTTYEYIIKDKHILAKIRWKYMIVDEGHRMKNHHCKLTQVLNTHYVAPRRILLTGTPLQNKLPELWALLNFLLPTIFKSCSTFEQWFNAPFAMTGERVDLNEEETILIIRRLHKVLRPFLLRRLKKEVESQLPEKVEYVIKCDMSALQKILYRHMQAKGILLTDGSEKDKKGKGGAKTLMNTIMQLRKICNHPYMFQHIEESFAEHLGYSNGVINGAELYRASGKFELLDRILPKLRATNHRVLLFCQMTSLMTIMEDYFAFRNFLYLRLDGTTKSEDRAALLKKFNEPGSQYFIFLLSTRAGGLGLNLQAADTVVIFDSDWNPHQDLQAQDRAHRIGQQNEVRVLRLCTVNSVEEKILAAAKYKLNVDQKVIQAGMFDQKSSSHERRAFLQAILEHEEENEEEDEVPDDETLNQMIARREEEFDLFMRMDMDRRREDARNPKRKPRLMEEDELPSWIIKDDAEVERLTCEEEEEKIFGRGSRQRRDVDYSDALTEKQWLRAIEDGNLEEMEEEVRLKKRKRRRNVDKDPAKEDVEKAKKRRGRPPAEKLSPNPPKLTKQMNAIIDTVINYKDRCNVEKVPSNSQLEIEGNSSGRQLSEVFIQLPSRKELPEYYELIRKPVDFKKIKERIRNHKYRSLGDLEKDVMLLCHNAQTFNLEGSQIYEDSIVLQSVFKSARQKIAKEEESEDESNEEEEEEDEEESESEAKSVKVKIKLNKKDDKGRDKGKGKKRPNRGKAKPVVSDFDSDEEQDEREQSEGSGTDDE
Target sequence in this assay (P40337 whole entry): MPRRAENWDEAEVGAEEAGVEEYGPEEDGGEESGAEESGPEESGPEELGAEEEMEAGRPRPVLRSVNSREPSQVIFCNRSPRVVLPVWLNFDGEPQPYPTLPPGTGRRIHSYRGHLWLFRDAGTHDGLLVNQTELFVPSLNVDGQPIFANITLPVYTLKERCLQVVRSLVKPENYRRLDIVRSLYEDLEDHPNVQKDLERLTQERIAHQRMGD

[14] = biological target: T6, von Hippel-Lindau disease tumor suppressor/SWI/SNF-related matrix-associated actin-dependent regulator of chromatin subfamily A member 2; experiment: PROTAC activity at SMARCA2/VHL in human MV4-11 cells assessed as degradation of SMARCA2 measured for 24 hrs by Western blot analysis; assay type: cell-based
Target sequence in this assay (P51531 whole entry): as the sequence (P51531 whole entry) above
Target sequence in this assay (P40337 whole entry): as the sequence (P40337 whole entry) above

[15] = biological target: von Hippel-Lindau disease tumor suppressor/SWI/SNF-related matrix-associated actin-dependent regulator of chromatin subfamily A member 4 (Homo sapiens, UniProt P51532+P40337); experiment: PROTAC activity at SMARCA4/VHL in human MV4-11 cells assessed as degradation of SMARCA4 measured for 24 hrs by Western blot analysis; assay type: cell-based
[16] = biological target: T6, von Hippel-Lindau disease tumor suppressor/SWI/SNF-related matrix-associated actin-dependent regulator of chromatin subfamily A member 2; experiment: PROTAC activity at SMARCA2/VHL in human MV4-11 cells assessed as degradation of SMARCA2 measured for 24 hrs by Western blot analysis relative to control; assay type: cell-based
[17] = system: HCT-116; experiment: Antiproliferative activity against human HCT-116 cells assessed as reduction in cell viability measured for 48 hrs by MTT assay; assay type: functional
[18] = biological target: von Hippel-Lindau disease tumor suppressor/Steroid hormone receptor ERR1 (Homo sapiens) (UniProt P11474+P40337); experiment: Protac activity at VHL/ERRalpha in human MCF7 cells assessed as maximum efficacy relative to control; assay type: cell-based
[19] = biological target: T7, von Hippel-Lindau disease tumor suppressor/Estrogen receptor (Homo sapiens, UniProt P03372+P40337); experiment: Protac activity at ER/VHL (unknown origin) degradation in human MCF7 cells by immunoblotting analysis; assay type: cell-based
Target sequence in this assay (P40337 whole entry, one chain of several): as the sequence (P40337 whole entry) above

[20] = biological target: T7, von Hippel-Lindau disease tumor suppressor/Estrogen receptor; experiment: Protac activity at ER/VHL (unknown origin) degradation in human MCF7 cells assessed as maximum efficacy by immunoblotting analysis relative to control; assay type: cell-based
Target sequence in this assay (P40337 whole entry, looked up, one chain of several): as the sequence (P40337 whole entry) above

[21] = biological target: T8, Androgen receptor (Homo sapiens, UniProt P10275); experiment: Induction of AR degradation in human HeLa cells; assay type: cell-based
T8 sequence (P10275 whole entry): T2 sequence (whole entry)

T1 sequence (P40337 whole entry, looked up, other chains not shown): as the sequence (P40337 whole entry) above
von Hippel-Lindau disease tumor suppressor/SWI/SNF-related matrix-associated actin-dependent regulator of chromatin subfamily A member 4, sequence (P51532 whole entry): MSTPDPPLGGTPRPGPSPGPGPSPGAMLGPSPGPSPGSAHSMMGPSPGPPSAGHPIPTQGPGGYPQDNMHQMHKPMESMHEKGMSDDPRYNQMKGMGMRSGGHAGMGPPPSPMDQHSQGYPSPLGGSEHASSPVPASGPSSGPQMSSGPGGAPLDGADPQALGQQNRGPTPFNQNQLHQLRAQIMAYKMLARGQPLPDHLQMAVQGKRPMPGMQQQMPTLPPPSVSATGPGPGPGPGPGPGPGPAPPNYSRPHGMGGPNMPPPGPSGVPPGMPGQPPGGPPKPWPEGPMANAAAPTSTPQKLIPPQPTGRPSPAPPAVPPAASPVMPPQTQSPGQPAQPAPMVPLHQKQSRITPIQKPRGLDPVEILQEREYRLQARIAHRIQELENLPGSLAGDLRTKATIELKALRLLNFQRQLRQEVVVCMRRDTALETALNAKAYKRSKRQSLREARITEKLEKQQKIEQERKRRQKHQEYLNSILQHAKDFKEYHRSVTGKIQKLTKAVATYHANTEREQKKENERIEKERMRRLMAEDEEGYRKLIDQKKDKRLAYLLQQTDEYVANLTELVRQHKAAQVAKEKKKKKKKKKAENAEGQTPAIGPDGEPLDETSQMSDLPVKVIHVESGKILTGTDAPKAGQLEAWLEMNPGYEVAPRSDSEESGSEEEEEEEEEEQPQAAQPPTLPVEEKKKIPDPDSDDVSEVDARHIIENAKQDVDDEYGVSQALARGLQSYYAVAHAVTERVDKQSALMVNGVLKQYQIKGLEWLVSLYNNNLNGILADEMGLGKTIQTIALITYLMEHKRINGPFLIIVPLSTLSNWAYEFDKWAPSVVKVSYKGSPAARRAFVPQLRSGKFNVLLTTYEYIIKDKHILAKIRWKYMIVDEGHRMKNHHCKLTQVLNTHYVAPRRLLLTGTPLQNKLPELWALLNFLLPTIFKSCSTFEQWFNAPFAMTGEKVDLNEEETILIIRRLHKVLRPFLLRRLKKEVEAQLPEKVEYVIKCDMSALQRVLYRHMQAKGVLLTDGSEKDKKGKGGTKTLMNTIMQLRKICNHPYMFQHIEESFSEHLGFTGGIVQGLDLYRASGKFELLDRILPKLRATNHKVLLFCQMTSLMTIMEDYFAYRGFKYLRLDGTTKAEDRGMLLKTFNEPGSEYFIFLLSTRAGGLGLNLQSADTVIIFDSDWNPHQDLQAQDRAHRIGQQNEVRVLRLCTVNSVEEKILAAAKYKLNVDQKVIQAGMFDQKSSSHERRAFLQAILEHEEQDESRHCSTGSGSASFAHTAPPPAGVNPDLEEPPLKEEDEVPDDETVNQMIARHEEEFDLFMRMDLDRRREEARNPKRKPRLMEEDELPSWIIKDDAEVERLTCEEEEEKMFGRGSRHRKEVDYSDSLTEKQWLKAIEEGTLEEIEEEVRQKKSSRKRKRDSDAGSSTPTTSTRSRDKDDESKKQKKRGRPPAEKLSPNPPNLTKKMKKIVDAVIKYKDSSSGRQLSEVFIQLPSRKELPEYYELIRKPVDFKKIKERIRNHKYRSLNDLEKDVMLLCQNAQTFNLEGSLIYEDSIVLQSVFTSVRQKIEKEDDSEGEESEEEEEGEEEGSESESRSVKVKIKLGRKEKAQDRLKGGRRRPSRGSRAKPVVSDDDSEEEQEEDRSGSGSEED
von Hippel-Lindau disease tumor suppressor/SWI/SNF-related matrix-associated actin-dependent regulator of chromatin subfamily A member 4, sequence (P40337 whole entry): as the sequence (P40337 whole entry) above
von Hippel-Lindau disease tumor suppressor/Steroid hormone receptor ERR1 (Homo sapiens), sequence (P11474 whole entry, looked up): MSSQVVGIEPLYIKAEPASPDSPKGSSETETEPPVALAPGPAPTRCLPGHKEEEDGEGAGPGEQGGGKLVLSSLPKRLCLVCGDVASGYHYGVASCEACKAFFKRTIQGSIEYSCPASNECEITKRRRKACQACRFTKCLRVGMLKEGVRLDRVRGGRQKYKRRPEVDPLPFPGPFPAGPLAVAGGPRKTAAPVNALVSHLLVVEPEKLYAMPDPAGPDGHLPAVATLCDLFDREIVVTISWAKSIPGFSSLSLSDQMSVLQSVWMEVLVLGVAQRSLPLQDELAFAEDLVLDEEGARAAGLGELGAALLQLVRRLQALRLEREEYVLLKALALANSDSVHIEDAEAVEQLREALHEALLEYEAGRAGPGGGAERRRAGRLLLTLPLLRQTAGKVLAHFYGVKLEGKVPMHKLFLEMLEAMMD
von Hippel-Lindau disease tumor suppressor/Steroid hormone receptor ERR1 (Homo sapiens), sequence (P40337 whole entry, looked up): as the sequence (P40337 whole entry) above

Emax [4]: > 70%
DC50 [5]: 1000 nM
Emax [6]: > 80%
Compound: CC/C(=C(\c1ccc(O)cc1)c1ccc(OCCN(C)C(=O)COCCOCCOCCOc2ccc(O[C@H]3C[C@@H](C(=O)N[C@@H]4CCCc5ccccc54)N(C(=O)[C@@H](NC(=O)[C@H](C)NC)C4CCCCC4)C3)cc2)cc1)c1ccccc1

Activity [9]: 90%
Emax [10]: > 90%
Emax [11]: > 90%
Emax [2]: > 90%
Compound: Cc1ncsc1-c1ccc(CNC(=O)[C@@H]2C[C@@H](O)CN2C(=O)[C@@H](NC(=O)COCCOCCOCCNC(=O)C[C@@H]2N=C(c3ccc(Cl)cc3)c3c(sc(C)c3C)-n3c(C)nnc32)C(C)(C)C)cc1

IC50 [12]: 28 nM
DC50 [13]: 6 nM
DC50 [14]: 6 nM
DC50 [15]: 11 nM
Emax [16]: 100%
Compound: Cc1ncsc1-c1ccc(CNC(=O)[C@@H]2C[C@@H](O)CN2C(=O)[C@@H](NC(=O)C2(F)CC2)C(C)(C)C)c(OCCOc2ccc(CN3CCN(c4cc(-c5ccccc5O)nnc4N)CC3)cc2)c1

Emax [18]: > 86%
DC50 [19]: 100 nM
Emax [20]: 86%
Compound: COc1cc(/C=C2\SC(=O)N(CCOCCC(=O)N[C@H](C(=O)N3C[C@H](O)C[C@H]3C(=O)NCc3ccc(-c4scnc4C)cc3)C(C)(C)C)C2=O)ccc1Oc1ccc(C#N)cc1C(F)(F)F

Further lines, the compound ahead of its results:

Compound: CC(=O)N[C@H](C(=O)N1C[C@@H](O)C[C@H]1C(=O)NCc1ccc(-c2scnc2C)cc1)C(C)(C)SCCCCCNC(=O)C[C@@H]1N=C(c2ccc(Cl)cc2)c2c(sc(C)c2C)-n2c(C)nnc21
DC50 [1]: 10 nM
Emax [2]: > 90%

Compound: CC/C(=C(\c1ccc(O)cc1)c1ccc(OCCN(C)C(=O)COCCOCCOCCOc2cccc(C(=O)c3csc([C@@H]4CCCN4C(=O)[C@@H](NC(=O)[C@H](C)NC)C4CCCCC4)n3)c2)cc1)c1ccccc1
Emax [3]: 50%
Emax [4]: > 70%
DC50 [5]: 1000 nM
Emax [6]: > 70%

Compound: Cc1ncsc1-c1ccc([C@H](C)NC(=O)[C@@H]2C[C@@H](O)CN2C(=O)[C@@H](NC(=O)COCCCOCCNC(=O)C[C@@H]2N=C(c3ccc(Cl)cc3)c3c(sc(C)c3C)-n3c(C)nnc32)C(C)(C)C)cc1
DC50 [7]: < 1 nM
Emax [8]: > 90%
Emax [2]: > 50%

Compound: COc1cc(C(=O)O)ccc1NC(=O)[C@@H]1N[C@@H](CC(C)(C)C)[C@](C#N)(c2ccc(Cl)cc2F)[C@H]1c1cccc(Cl)c1F [IDASANUTLIN]
Activity [17]: 64%

Compound: COc1ccc(C2=N[C@H](c3ccc(Cl)cc3)[C@H](c3ccc(Cl)cc3)N2C(=O)N2CCN(CC(=O)NCCOCCOCCOCC(=O)Nc3ccc(OC[C@](C)(O)C(=O)Nc4ccc([N+](=O)[O-])c(C(F)(F)F)c4)cc3)C(=O)C2)c(OC(C)C)c1
DC50 [21]: 10000 nM
